Assay results reported in US20180200257A1, “METHODS FOR THE TREATMENT OF INFLAMMATORY DISORDERS” (Galapagos NV, priority 2015, published 2018).

Test system: subjects with moderately to severely active RA who have an inadequate response to methotrexate (MTX)
Assay: Study 2 (monotherapy) - ACR responses (ACR20/50/70)
Type: in vivo, human
Source text: The terms “ACR20”, “ACR50” and “ACR70” as used herein are scores which indicate how much a patient's rheumatoid arthritis has improved according to criteria set out by the American College of Rheumatology (ACR). The ACR score represents a percentage. An ACR20 score means that a person's RA has improved by 20%, an ACR50 score means it has improved by 50%, and an ACR70 score means it has improved by 70%. Specifically, to qualify for an ACR20 score, a person with RA must have at least 20% fewer tender joints and at least 20% fewer swollen joints. In addition the patient must show a 20% improvement in at least three of the following five areas: the person's overall (global) assessment of his or her own RA, the physician's global assessment of the person's RA, the person's assessment of his or her own pain, the person's assessment of his or her own physical functioning, and the results of an erythrocyte sedimentation rate or C-reactive protein (CRP) blood test (both of which test for inflammation). ACR50 and ACR70 scores use the same criteria but require 50% and 70% improvement, respectively, (Felson et al., 1993). In the data presented herein the CRP blood test is used.
Randomized, double-blind, placebo-controlled, multicenter, phase IIb dose finding study of Compound 1 (dosed as a [Compound 1:HCl:3H2O]) administered for 24 weeks as monotherapy to subjects with moderately to severely active rheumatoid arthritis who have an inadequate response to methotrexate alone
Double-blind, placebo-controlled, monotherapy study in subjects with moderately to severely active RA who have an inadequate response to methotrexate (MTX) (oral or parenteral).
280 subjects randomized to one of 3 doses of Compound 1 (dosed as a [Compound 1:HCl:3H2O]) or to placebo, given once daily (q.d.).
Twelve weeks of treatment with Compound 1 (dosed as a [Compound 1:HCl:3H2O]) at 50 mg, 100 mg, or 200 mg q.d.; or placebo. At Week 12, all subjects on placebo and the subjects on the 50 mg dose who have not achieved 20% improvement in swollen joint count (SJC66) and tender joint count (TJC68) will be assigned to 100 mg q.d. in a blinded fashion and will continue treatment until Week 24. Subjects in the other groups will maintain their randomized treatment until Week 24.
The American College of Rheumatology (ACR) composite score, which evaluates clinical improvement relative to an initial assessment, is a commonly accepted efficacy end point for clinical trials in patients with rheumatoid arthritis. The ACR score correspond to a percentage improvement in pre-set parameters, and therefore measures the evolution of the disease in a patient. For example, ACR20 denotes at least 20% improvement in tender and swollen joint counts and in three of the following end points: global assessment by the patient, global assessment by the doctor, C reactive protein (CRP), patient's pain Visual Analogue Scale and Health Assessment Questionnaire Score. The number of swollen joints, ESR and CRP correlate with radiographic progression of joint damage, whereas tender joint counts, as well as global assessments by doctors and patients, and patients' reports of pain, are sensitive to change in clinical outcomes. Physical function, as assessed by the Health Assessment Questionnaire Score, is a potent predictor of the risk of disability in rheumatoid arthritis (Felson and American College of Rheumatology Committee to Reevaluate Improvement Criteria, 2007; Felson et al., 1993).
In particular, the list of parameters used to assess ACR score can be found in the Table XCVI below and the results of the ACR responses at week 12 via either NRI or LOCF are shown in the tables below. The Hommel-corrected p-value for the pairwise comparisons of each group with placebo is shown. […]

[1] = 50 mg q.d., week 1, 12 weeks results
[2] = 50 mg q.d., week 1, 24 weeks results
[3] = 50 mg q.d., week 2, 12 weeks results
[4] = 50 mg q.d., week 2, 24 weeks results
[5] = 50 mg q.d., week 4, 12 weeks results
[6] = 50 mg q.d., week 4, 24 weeks results
[7] = 50 mg q.d., week 12, 12 weeks results
[8] = 50 mg q.d., week 12, 24 weeks results
[9] = 50 mg q.d., week 16, 24 weeks results
[10] = 50 mg q.d., week 20, 24 weeks results
[11] = 50 mg q.d., week 24, 24 weeks results
[12] = 50 mg q.d., week 8, 12 weeks results
[13] = 50 mg q.d., week 8, 24 weeks results
[14] = 100 mg q.d., week 1, 12 weeks results
[15] = 100 mg q.d., week 1, 24 weeks results
[16] = 100 mg q.d., week 2, 12 weeks results
[17] = 100 mg q.d., week 2, 24 weeks results
[18] = 100 mg q.d., week 4, 12 weeks results
[19] = 100 mg q.d., week 4, 24 weeks results
[20] = 100 mg q.d., week 8, 24 weeks results
[21] = 100 mg q.d., week 12, 12 weeks results
[22] = 100 mg q.d., week 12, 24 weeks results
[23] = 100 mg q.d., week 16, 24 weeks results
[24] = 100 mg q.d., week 20, 24 weeks results
[25] = 100 mg q.d., week 24, 24 weeks results
[26] = 100 mg q.d., week 8, 12 weeks results
[27] = 200 mg q.d., week 1, 12 weeks results
[28] = 200 mg q.d., week 1, 24 weeks results
[29] = 200 mg q.d., week 2, 12 weeks results
[30] = 200 mg q.d., week 2, 24 weeks results
[31] = 200 mg q.d., week 4, 12 weeks results
[32] = 200 mg q.d., week 4, 24 weeks results
[33] = 200 mg q.d., week 8, 24 weeks results
[34] = 200 mg q.d., week 12, 12 weeks results
[35] = 200 mg q.d., week 12, 24 weeks results
[36] = 200 mg q.d., week 16, 24 weeks results
[37] = 200 mg q.d., week 20, 24 weeks results
[38] = 200 mg q.d., week 24, 24 weeks results
[39] = 200 mg q.d., week 8, 12 weeks results

## O=C(Nc1nc2cccc(-c3ccc(CN4CCS(=O)(=O)CC4)cc3)n2n1)C1CC1 [Compound 1, cyclopropanecarboxylic acid {5-[4-(1,1-dioxo-thiomorpholin-4-ylmethyl)-phenyl]-[1,2,4]triazolo[1,5-a]pyridin-2-yl}-amide]
[1]
  ACR20 (LOCF): 20.8
  ACR20 (NRI): 22.2%
  ACR50 (LOCF): 1.4%
  ACR50 (NRI): 1.4%
  ACR70 (LOCF): 0.0%
  ACR70 (NRI): 0.0%
[2]
  ACR20 (LOCF): 22.2
  ACR20 (NRI): 22.2%
  ACR50 (LOCF): 1.4%
  ACR50 (NRI): 1.4%
  ACR70 (LOCF): 0.0%
  ACR70 (NRI): 0.0%
[3]
  ACR20 (LOCF): 33.3%
  ACR20 (NRI): 34.7%
  ACR50 (LOCF): 5.6%
  ACR50 (NRI): 5.6%
  ACR70 (LOCF): 1.4%
  ACR70 (NRI): 1.4%
[4]
  ACR20 (LOCF): 33.3%
  ACR20 (NRI): 33.3%
  ACR50 (LOCF): 5.6%
  ACR50 (NRI): 5.6%
  ACR70 (LOCF): 1.4%
  ACR70 (NRI): 1.4%
[5]
  ACR20 (LOCF): 54.2%
  ACR20 (NRI): 54.2%
  ACR50 (LOCF): 13.9%
  ACR50 (NRI): 15.3%
  ACR70 (LOCF): 8.3%
  ACR70 (NRI): 8.3%
[6]
  ACR20 (LOCF): 52.8%
  ACR20 (NRI): 52.8%
  ACR50 (LOCF): 15.3%
  ACR50 (NRI): 15.3%
  ACR70 (LOCF): 8.3%
  ACR70 (NRI): 8.3%
[7]
  ACR50 (NRI): 36.1%%
  ACR70 (NRI): 8.3%%
[8]
  ACR50 (NRI): 34.7%
  ACR70 (NRI): 8.3%
[9]
  ACR50 (NRI): 33.3%
  ACR70 (NRI): 15.3%
[10]
  ACR50 (NRI): 27.8%
  ACR70 (NRI): 12.5%
[11]
  ACR50 (NRI): 31.9%
  ACR70 (NRI): 19.4%
[12]
  ACR20 (LOCF): 62.5%
  ACR20 (NRI): 61.1%
  ACR50 (LOCF): 16.7%
  ACR50 (NRI): 16.7%
  ACR70 (LOCF): 6.9%
  ACR70 (NRI): 6.9%
[13]
  ACR20 (LOCF): 61.1%
  ACR20 (NRI): 61.1%
  ACR50 (LOCF): 16.7%
  ACR50 (NRI): 16.7%
  ACR70 (LOCF): 6.9%
  ACR70 (NRI): 6.9%
[14]
  ACR20 (LOCF): 24.3%
  ACR20 (NRI): 24.3%
  ACR50 (LOCF): 10.0%
  ACR50 (NRI): 10.0%
  ACR70 (LOCF): 1.4%
  ACR70 (NRI): 1.4%
[15]
  ACR20 (LOCF): 24.3%
  ACR20 (NRI): 24.3%
  ACR50 (LOCF): 10.0%
  ACR50 (NRI): 10.0%
  ACR70 (LOCF): 1.4%
  ACR70 (NRI): 1.4%
[16]
  ACR20 (LOCF): 34.3%
  ACR20 (NRI): 32.9%
  ACR50 (LOCF): 8.6%
  ACR50 (NRI): 7.1%
  ACR70 (LOCF): 1.4%
  ACR70 (NRI): 1.4%
[17]
  ACR20 (LOCF): 35.7%
  ACR20 (NRI): 32.9%
  ACR50 (LOCF): 8.6%
  ACR50 (NRI): 7.1%
  ACR70 (LOCF): 1.4%
  ACR70 (NRI): 1.4%
[18]
  ACR20 (LOCF): 44.3%
  ACR20 (NRI): 44.3%
  ACR50 (LOCF): 18.6%
  ACR50 (NRI): 18.6%
  ACR70 (LOCF): 5.7%
  ACR70 (NRI): 5.7%
[19]
  ACR20 (LOCF): 44.3%
  ACR20 (NRI): 44.3%
  ACR50 (LOCF): 18.6%
  ACR50 (NRI): 18.6%
  ACR70 (LOCF): 5.7%
  ACR70 (NRI): 5.7%
[20]
  ACR50 (NRI): 25.7%
  ACR70 (NRI): 11.4%
[21]
  ACR50 (NRI): 34.3%%
  ACR70 (NRI): 18.6%%
[22]
  ACR50 (NRI): 35.7%
  ACR70 (NRI): 18.6%
[23]
  ACR50 (NRI): 38.6%
  ACR70 (NRI): 17.1%
[24]
  ACR50 (NRI): 41.4%
  ACR70 (NRI): 24.3%
[25]
  ACR50 (NRI): 40.0%
  ACR70 (NRI): 25.7%
[26]
  ACR20 (LOCF): 60.0%
  ACR20 (NRI): 61.4%
  ACR50 (LOCF): 25.7%
  ACR50 (NRI): 25.7%
  ACR70 (LOCF): 11.4%
  ACR70 (NRI): 11.4%
[27]
  ACR20 (LOCF): 39.1%
  ACR20 (NRI): 39.1%
  ACR50 (LOCF): 7.2%
  ACR50 (NRI): 7.2%
  ACR70 (LOCF): 1.4%
  ACR70 (NRI): 1.4%
[28]
  ACR20 (LOCF): 39.1%
  ACR20 (NRI): 39.1%
  ACR50 (LOCF): 7.2%
  ACR50 (NRI): 7.2%
  ACR70 (LOCF): 1.4%
  ACR70 (NRI): 1.4%
[29]
  ACR20 (LOCF): 53.6%
  ACR20 (NRI): 56.5%
  ACR50 (LOCF): 21.7%
  ACR50 (NRI): 21.7%
  ACR70 (LOCF): 4.3%
  ACR70 (NRI): 4.3%
[30]
  ACR20 (LOCF): 56.5%
  ACR20 (NRI): 56.5%
  ACR50 (LOCF): 21.7%
  ACR50 (NRI): 21.7%
  ACR70 (LOCF): 4.3%
  ACR70 (NRI): 4.3%
[31]
  ACR20 (LOCF): 62.3%
  ACR20 (NRI): 63.8%
  ACR50 (LOCF): 23.2%
  ACR50 (NRI): 23.2%
  ACR70 (LOCF): 11.6%
  ACR70 (NRI): 11.6%
[32]
  ACR20 (LOCF): 63.8%
  ACR20 (NRI): 62.3%
  ACR50 (LOCF): 23.2%
  ACR50 (NRI): 23.2%
  ACR70 (LOCF): 11.6%
  ACR70 (NRI): 11.6%
[33]
  ACR50 (NRI): 33.3%
  ACR70 (NRI): 17.4%
[34]
  ACR50 (NRI): 43.5%%
  ACR70 (NRI): 13.0%%
[35]
  ACR50 (NRI): 43.5%
  ACR70 (NRI): 13.0%
[36]
  ACR50 (NRI): 40.6%
  ACR70 (NRI): 18.8%
[37]
  ACR50 (NRI): 44.9%
  ACR70 (NRI): 24.6%
[38]
  ACR50 (NRI): 44.9%
  ACR70 (NRI): 24.6%
[39]
  ACR20 (LOCF): 72.5%
  ACR20 (NRI): 73.9%
  ACR50 (LOCF): 33.3%
  ACR50 (NRI): 33.3%
  ACR70 (LOCF): 17.4%
  ACR70 (NRI): 17.4%
